# How the values were obtained:
# [1] = target: Fibroblast growth factor receptor 3 (Homo sapiens) (UniProt P22607); experiment: Inhibition of FGFR3(h) at 10.0 µM in the Eurofins Kinase panel; conditions: Compound concentration 10.0 uM
# [2] = target: Sodium-dependent dopamine transporter (Homo sapiens) (UniProt Q01959); conditions: Compound concentration 10.0 uM
# [3] = target: Serine/threonine-protein kinase Sgk2 (Homo sapiens) (UniProt Q9HBY8); experiment: Inhibition of SGK2(h) at 10.0 µM in the Eurofins Kinase panel; conditions: Compound concentration 10.0 uM
# [4] = target: T1, Muscarinic acetylcholine receptor M4 (Homo sapiens) (UniProt P08173); conditions: Compound concentration 10.0 uM
# T1 sequence (whole entry): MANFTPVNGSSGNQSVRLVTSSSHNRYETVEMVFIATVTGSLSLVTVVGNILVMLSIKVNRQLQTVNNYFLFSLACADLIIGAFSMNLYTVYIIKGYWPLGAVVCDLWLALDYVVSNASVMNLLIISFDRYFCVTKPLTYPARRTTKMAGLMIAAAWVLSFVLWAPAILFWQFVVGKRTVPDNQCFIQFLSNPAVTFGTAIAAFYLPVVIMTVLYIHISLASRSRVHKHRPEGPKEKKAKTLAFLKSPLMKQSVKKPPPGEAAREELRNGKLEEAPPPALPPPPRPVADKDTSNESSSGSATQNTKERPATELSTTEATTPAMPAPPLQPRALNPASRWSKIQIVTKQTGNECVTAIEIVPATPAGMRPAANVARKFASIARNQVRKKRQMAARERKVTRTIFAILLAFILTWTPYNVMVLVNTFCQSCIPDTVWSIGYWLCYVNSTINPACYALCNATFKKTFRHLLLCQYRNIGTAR
# [5] = target: Calcium/calmodulin-dependent protein kinase type 1B (Homo sapiens) (UniProt Q6P2M8); experiment: Inhibition of CaMKIbeta(h) at 10.0 µM in the Eurofins Kinase panel; conditions: Compound concentration 10.0 uM
# [6] = target: RAC-beta serine/threonine-protein kinase (Homo sapiens) (UniProt P31751); experiment: Inhibition of PKBbeta(h) at 10.0 µM in the Eurofins Kinase panel; conditions: Compound concentration 10.0 uM
# [7] = target: Gamma-aminobutyric acid type B receptor subunit 1 (Homo sapiens) (UniProt Q9UBS5); conditions: Rattus norvegicus; Compound concentration 10.0 uM
# [8] = target: Tyrosine-protein kinase ABL1 (Homo sapiens) (UniProt P00519); experiment: Inhibition of Abl(h) at 10.0 µM in the Eurofins Kinase panel; conditions: Compound concentration 10.0 uM
# [9] = target: Matrix metalloproteinase-9 (Homo sapiens) (UniProt P14780); experiment: Inhibition of Peptidase, Matrix Metalloproteinase-9 (MMP-9) at 10 µM in the Eurofins-Panlabs enzyme assay (Eurofins_assay_114910); design: substrate with concentration; conditions: Compound concentration 10.0 uM
# [10] = target: Substance-K receptor (Homo sapiens) (UniProt P21452); experiment: Inhibition of Tachykinin NK2 at 10 µM in the Eurofins-Panlabs radioligand binding assay (Eurofins_assay_255600); design: ligand concentration 0.5 nM; conditions: Compound concentration 10.0 uM
# [11] = target: Sigma intracellular receptor 2 (Homo sapiens) (UniProt Q5BJF2); experiment: Inhibition of Sigma 2 at 10 µM in the Eurofins-Panlabs radioligand binding assay (Eurofins_assay_278200); design: ligand concentration 3 nM; conditions: Rattus norvegicus; Compound concentration 10.0 uM
# Rattus norvegicus = species: Rattus norvegicus; experiment: Inhibition of Thyroid Hormone at 10 µM in the Eurofins-Panlabs radioligand binding assay (Eurofins_assay_285900); assay type: protein assay; conditions: Compound concentration 10.0 uM
# [12] = target: C-C chemokine receptor type 2 (Homo sapiens) (UniProt P41597); experiment: Inhibition of Chemokine CCR2B at 10 µM in the Eurofins-Panlabs radioligand binding assay (Eurofins_assay_217550); conditions: Compound concentration 10.0 uM
# [13] = target: Protein phosphatase 3 catalytic subunit alpha (Homo sapiens) (UniProt Q08209); experiment: Inhibition of Protein Serine/threonine Phosphatase, PPP3CA (Calcineurin, PP2B) at […] µM in the Eurofins-Panlabs enzyme assay (Eurofins_assay_188020); design: substrate with concentration; conditions: Compound concentration 11.0 uM
# [14] = target: Histamine H3 receptor (Homo sapiens) (UniProt Q9Y5N1); conditions: Compound concentration 10.0 uM
# [15] = target: cGMP-specific 3',5'-cyclic phosphodiesterase (Homo sapiens) (UniProt O76074); conditions: Compound concentration 10.0 uM
# [16] = target: Adenosine Transporter (Cavia porcellus) (UniProt H0V4R7+H0UUG1+H0V3Z5); experiment: Inhibition of Transporter, Adenosine at compound concentration of 10.0 uM in the Eurofins-Panlabs radioligand binding assay (Eurofins_assay_202000); assay type: protein assay; design: ligand concentration 0.5 nM, non-specific ligand with concentration 5 uM Nitrobenzylthioinosine, incubation time 30 min, incubation temperature 25 C; conditions: Compound concentration 10.0 uM
# [17] = target: Prostaglandin G/H synthase 1 (Homo sapiens) (UniProt P23219); experiment: Inhibition of Cyclooxygenase COX-1 at compound concentration of 10.0 uM in the Eurofins-Panlabs enzyme assay (Eurofins_assay_116020); conditions: Compound concentration 10.0 uM
# [18] = target: Mitogen-activated protein kinase 1 (Homo sapiens) (UniProt P28482); experiment: Inhibition of Protein Serine/Threonine Kinase, MAPK1 (ERK2) at 10 µM in the Eurofins-Panlabs enzyme assay (Eurofins_assay_171120); design: substrate with concentration; conditions: Compound concentration 10.0 uM
# [19] = target: Receptor-type tyrosine-protein phosphatase C (Homo sapiens) (UniProt P08575); experiment: Inhibition of Protein Tyrosine Phosphatase, PTPRC (CD45) at 10 µM in the Eurofins-Panlabs enzyme assay (Eurofins_assay_190010); conditions: Compound concentration 10.0 uM
# [20] = target: cAMP-dependent protein kinase catalytic subunit beta (Homo sapiens) (UniProt P22694); experiment: Inhibition of PKACbeta(h) at 10.0 µM in the Eurofins Kinase panel; conditions: Compound concentration 10.0 uM
# [21] = target: voltage-gated sodium channel, site 2 (Rattus norvegicus, UniProt F1LQQ7+O08562+O88420+O88457+P04774+P04775+P08104+P15389+P15390+Q62968); experiment: Inhibition of Sodium Channel, Site 2 at 10 µM in the Eurofins-Panlabs radioligand binding assay (Eurofins_assay_279510); assay type: protein assay; design: ligand concentration 5 nM, non-specific ligand with concentration 100 µM Veratridine, incubation time 60 min, incubation temperature 37 °C; conditions: male, Wistar, rat whole brain (except cerebellum) membranes, probe [3H] Batrachotoxinin, compound concentration 10 uM
# [22] = target: Cysteinyl leukotriene receptor 1 (Homo sapiens) (UniProt Q9Y271); experiment: Inhibition of Leukotriene, Cysteinyl CysLT1 at 10 µM in the Eurofins-Panlabs radioligand binding assay (Eurofins_assay_250460); design: ligand concentration 0.3 nM, non-specific ligand with concentration 0.3 µM Leukotriene D4, incubation time 30 min, incubation temperature 25 °C; conditions: Compound concentration 10.0 uM
# [23] = target: Mitogen-activated protein kinase kinase kinase 20 (Homo sapiens) (UniProt Q9NYL2); experiment: Inhibition of ZAK(h) at 10.0 µM in the Eurofins Kinase panel; conditions: Compound concentration 10.0 uM
# Oryctolagus cuniculus = species: Oryctolagus cuniculus; experiment: Inhibition of Purinergic P2X at 10 µM in the Eurofins-Panlabs radioligand binding assay (Eurofins_assay_268700); assay type: protein assay; conditions: Compound concentration 10.0 uM
# [24] = target: Mitogen-activated protein kinase 14 (Homo sapiens) (UniProt Q16539); experiment: Inhibition of SAPK2a(h) at 10.0 µM in the Eurofins Kinase panel; conditions: Compound concentration 10.0 uM
# [25] = target: Gamma-aminobutyric acid type B receptor subunit 1 (Homo sapiens) (UniProt Q9UBS5); experiment: Inhibition of GABAB1A at compound concentration of 10.0 uM in the Eurofins-Panlabs radioligand binding assay (Eurofins_assay_228610); design: ligand concentration 4 nM; conditions: Compound concentration 10.0 uM
# [26] = target: Serine/threonine-protein kinase Chk2 (Homo sapiens) (UniProt O96017); experiment: Inhibition of CHK2(h) at 10.0 µM in the Eurofins Kinase panel; conditions: Compound concentration 10.0 uM
# Sequence of Sodium-dependent dopamine transporter (Homo sapiens) (Q01959 whole entry): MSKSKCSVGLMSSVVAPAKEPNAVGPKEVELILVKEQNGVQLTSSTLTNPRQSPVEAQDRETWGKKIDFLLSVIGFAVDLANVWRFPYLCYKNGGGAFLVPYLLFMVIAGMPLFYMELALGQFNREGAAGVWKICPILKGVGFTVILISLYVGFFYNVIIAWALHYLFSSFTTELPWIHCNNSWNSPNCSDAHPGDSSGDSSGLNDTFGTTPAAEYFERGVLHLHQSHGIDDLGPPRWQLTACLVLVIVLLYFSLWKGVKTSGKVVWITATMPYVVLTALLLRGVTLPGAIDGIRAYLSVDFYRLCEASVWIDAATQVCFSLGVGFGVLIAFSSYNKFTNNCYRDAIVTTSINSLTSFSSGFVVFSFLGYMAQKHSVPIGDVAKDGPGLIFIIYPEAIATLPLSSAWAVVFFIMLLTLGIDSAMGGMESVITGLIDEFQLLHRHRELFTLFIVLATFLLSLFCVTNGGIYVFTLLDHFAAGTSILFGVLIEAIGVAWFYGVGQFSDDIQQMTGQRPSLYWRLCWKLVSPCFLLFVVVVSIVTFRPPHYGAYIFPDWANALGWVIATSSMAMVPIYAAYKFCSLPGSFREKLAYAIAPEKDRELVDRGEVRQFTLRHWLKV
# Sequence of Gamma-aminobutyric acid type B receptor subunit 1 (Homo sapiens) (Q9UBS5 whole entry): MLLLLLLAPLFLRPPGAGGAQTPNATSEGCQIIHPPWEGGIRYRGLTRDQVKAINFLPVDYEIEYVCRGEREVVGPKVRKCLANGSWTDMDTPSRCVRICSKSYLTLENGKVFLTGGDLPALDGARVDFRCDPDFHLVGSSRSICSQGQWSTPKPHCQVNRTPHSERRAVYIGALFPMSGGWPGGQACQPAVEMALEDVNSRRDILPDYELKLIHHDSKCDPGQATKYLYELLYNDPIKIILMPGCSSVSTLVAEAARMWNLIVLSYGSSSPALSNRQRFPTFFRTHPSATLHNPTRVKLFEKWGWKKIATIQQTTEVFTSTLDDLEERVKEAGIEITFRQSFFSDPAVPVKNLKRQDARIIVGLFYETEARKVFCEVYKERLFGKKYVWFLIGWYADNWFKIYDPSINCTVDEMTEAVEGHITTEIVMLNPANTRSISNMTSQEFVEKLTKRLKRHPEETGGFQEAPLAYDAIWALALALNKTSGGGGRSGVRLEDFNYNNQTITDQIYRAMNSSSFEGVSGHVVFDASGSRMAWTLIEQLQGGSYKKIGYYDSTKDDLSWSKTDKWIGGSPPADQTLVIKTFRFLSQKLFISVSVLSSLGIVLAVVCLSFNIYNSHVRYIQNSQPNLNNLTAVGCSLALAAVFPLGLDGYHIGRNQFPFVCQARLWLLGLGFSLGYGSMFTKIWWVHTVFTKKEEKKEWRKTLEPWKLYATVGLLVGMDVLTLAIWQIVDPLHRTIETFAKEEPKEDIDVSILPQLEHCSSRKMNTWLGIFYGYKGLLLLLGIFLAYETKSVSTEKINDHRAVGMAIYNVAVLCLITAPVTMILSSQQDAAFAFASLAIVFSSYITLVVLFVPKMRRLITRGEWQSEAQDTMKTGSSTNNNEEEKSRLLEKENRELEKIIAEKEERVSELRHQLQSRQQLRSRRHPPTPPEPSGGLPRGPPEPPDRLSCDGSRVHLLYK
# Sequence of Histamine H3 receptor (Homo sapiens) (Q9Y5N1 whole entry): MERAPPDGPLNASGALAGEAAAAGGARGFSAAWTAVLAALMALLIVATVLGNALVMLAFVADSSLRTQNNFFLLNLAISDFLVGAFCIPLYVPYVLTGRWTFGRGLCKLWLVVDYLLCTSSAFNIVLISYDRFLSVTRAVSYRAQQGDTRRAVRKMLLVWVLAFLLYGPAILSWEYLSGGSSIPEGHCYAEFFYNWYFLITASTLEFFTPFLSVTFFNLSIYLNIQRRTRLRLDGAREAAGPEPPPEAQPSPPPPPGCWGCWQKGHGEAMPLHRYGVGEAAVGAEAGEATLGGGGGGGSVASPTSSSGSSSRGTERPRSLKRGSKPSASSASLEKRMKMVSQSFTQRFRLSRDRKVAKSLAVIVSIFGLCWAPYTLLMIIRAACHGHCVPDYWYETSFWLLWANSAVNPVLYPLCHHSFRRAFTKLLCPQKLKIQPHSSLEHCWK
# Sequence of Calcium/calmodulin-dependent protein kinase type 1B (Homo sapiens) (Q6P2M8 whole entry): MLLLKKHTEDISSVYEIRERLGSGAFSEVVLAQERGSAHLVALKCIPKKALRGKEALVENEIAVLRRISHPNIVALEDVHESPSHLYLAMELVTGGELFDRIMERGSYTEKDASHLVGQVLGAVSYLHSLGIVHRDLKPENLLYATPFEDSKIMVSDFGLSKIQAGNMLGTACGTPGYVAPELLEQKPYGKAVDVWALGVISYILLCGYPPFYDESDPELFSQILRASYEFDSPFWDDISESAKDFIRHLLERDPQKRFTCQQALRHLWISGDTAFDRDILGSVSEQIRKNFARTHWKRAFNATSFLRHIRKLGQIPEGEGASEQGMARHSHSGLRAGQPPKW
# Sequence of Mitogen-activated protein kinase 1 (Homo sapiens) (P28482 whole entry): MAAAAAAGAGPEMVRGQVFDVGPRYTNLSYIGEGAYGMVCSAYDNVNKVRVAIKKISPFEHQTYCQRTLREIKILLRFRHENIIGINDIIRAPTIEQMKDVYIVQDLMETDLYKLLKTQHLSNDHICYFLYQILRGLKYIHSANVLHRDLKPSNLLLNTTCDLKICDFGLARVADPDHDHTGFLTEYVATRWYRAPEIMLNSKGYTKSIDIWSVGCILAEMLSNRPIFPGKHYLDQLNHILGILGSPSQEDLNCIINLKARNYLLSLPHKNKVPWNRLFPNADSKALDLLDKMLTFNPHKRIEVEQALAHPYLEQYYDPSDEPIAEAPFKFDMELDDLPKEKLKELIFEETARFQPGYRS
# Sequence of Receptor-type tyrosine-protein phosphatase C (Homo sapiens) (P08575 whole entry): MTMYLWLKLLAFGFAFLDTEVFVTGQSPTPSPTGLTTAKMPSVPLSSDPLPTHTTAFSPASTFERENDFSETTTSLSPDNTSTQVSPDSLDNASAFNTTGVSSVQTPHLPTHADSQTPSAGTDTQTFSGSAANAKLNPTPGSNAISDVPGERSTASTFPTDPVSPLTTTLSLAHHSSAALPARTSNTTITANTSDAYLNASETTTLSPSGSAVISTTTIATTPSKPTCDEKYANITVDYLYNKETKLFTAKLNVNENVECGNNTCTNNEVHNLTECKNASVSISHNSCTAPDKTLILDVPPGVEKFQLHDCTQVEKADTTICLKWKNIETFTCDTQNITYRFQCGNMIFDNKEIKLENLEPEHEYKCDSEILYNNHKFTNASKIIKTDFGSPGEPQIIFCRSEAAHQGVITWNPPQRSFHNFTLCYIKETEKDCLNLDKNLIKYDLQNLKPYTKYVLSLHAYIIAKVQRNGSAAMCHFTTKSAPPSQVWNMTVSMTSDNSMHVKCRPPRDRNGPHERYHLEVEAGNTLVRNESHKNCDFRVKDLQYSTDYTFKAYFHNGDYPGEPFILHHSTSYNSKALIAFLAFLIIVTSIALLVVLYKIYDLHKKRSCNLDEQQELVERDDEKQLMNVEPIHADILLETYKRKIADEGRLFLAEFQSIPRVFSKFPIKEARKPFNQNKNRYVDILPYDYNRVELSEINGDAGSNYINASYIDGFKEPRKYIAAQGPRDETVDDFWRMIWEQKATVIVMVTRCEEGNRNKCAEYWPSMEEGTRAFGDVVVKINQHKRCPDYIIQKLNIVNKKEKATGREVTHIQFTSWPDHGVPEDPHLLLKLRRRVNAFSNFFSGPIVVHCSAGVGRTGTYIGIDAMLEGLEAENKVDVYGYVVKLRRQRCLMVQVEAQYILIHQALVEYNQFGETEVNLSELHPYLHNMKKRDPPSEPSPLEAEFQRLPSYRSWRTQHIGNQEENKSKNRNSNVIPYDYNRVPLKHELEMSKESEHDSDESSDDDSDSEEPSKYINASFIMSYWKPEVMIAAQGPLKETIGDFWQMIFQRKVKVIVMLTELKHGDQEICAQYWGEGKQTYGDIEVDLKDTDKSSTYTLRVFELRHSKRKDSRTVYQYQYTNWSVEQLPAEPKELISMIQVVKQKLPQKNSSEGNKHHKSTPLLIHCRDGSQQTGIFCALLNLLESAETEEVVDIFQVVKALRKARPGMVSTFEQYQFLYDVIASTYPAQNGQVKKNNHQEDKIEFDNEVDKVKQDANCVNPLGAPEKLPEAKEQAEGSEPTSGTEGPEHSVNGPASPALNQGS
# Sequence of Cysteinyl leukotriene receptor 1 (Homo sapiens) (Q9Y271 whole entry): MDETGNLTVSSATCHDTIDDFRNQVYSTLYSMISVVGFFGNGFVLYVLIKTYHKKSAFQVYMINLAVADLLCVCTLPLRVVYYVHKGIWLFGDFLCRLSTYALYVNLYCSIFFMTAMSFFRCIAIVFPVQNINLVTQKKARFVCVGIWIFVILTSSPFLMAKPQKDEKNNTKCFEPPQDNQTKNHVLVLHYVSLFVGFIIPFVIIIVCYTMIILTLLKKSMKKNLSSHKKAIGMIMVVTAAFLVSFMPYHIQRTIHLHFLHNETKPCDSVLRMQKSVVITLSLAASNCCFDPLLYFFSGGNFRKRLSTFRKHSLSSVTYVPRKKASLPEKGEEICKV
# Sequence of Sigma intracellular receptor 2 (Homo sapiens) (Q5BJF2 whole entry): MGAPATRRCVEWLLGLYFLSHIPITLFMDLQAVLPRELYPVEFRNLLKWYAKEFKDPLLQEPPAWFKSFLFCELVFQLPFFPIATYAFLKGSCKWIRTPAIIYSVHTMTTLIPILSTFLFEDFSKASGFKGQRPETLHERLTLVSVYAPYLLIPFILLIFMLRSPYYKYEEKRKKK
# Sequence of Serine/threonine-protein kinase Sgk2 (Homo sapiens) (Q9HBY8 whole entry): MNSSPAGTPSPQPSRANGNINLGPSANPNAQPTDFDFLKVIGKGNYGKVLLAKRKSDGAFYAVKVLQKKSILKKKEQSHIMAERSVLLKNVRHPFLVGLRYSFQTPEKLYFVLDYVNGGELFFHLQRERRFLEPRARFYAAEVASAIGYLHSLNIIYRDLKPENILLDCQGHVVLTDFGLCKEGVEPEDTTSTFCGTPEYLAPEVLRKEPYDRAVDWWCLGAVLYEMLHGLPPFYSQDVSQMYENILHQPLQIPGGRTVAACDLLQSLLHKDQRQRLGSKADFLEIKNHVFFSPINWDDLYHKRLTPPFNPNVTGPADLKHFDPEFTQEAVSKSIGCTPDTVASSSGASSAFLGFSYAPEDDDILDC
structure (smiles),measurement,setting,value
O=c1n(Cc2cncn2-c2cccc(Cl)c2)nc(-c2ccc(Cl)cc2)n1C[C@H](O)C(F)(F)F,inhibition,[1],-0.44%
same,inhibition,[2],4.92%
same,inhibition,[3],-3.39%
same,inhibition,[4],-9.78%
same,inhibition,[5],-8.98%
same,inhibition,[6],-3.28%
same,inhibition,[7],8%
same,inhibition,[8],-3.62%
C[C@H](O)c1nc(Cn2nc(-c3ccc(Cl)cc3)n(C[C@H](O)C(F)(F)F)c2=O)nn1-c1cccc(Cl)c1 [PECAVAPTAN],inhibition,[9],-2%
same,inhibition,[10],30%
same,inhibition,[11],5%
same,inhibition,Rattus norvegicus,6%
same,inhibition,[12],2%
same,inhibition,[13],32%
same,inhibition,[14],-1%
same,inhibition,[15],-10%
same,inhibition,[16],21%
same,inhibition,[17],-3%
same,inhibition,[18],-2%
same,inhibition,[19],0%
same,inhibition,[20],-5.07%
same,"inhibition at 60 min, 10 µM",[21],42% (not active)
same,inhibition,[22],5%
same,inhibition,[23],-4.87%
same,inhibition,Oryctolagus cuniculus,18%
same,inhibition,[24],-8.61%
same,inhibition,[25],-4%
same,inhibition,[26],-8.52%

# — ChEMBL document CHEMBL5463729, “Data for DCP probe BAY 1753011” (2023)
